Read-outs that look alike come from different tables or passages of the source.
Experiments:
CpIMPDH [1] = biological target: T1, CpIMPDH (Cryptosporidium parvum, UniProt Q8T6T2); assay: biochemical; format: biochemical; details: for CpIMPDH inhibition, result in words: relative to parent anilide
T1 sequence (Q8T6T2 1-400): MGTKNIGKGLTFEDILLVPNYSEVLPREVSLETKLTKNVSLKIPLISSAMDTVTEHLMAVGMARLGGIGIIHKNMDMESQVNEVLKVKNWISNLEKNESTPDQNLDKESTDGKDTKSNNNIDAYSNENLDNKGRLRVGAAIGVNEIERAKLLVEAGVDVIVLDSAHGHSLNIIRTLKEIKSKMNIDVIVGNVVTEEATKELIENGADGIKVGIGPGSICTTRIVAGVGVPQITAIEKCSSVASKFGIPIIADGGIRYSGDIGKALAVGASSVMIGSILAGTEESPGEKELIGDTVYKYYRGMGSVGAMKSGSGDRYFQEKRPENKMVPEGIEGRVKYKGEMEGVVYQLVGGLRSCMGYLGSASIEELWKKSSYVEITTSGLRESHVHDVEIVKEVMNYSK

HsIMPDH2 = HsIMPDH2 (Homo sapiens, UniProt P12268); assay: HsIMPDH2 enzyme inhibition; format: biochemical
HsIMPDH1 = details: read-out: HsIMPDH1 Ki; cited from earlier work
CpIMPDH [2] = biological target: T1, CpIMPDH; details: read-out: CpIMPDH Ki; cited from earlier work
MtbIMPDH = MtbIMPDH (Mycobacterium tuberculosis, UniProt P9WKI7); assay: MtbIMPDH inhibition; format: biochemical
Chain of MtbIMPDH (P9WKI7 whole entry, looked up): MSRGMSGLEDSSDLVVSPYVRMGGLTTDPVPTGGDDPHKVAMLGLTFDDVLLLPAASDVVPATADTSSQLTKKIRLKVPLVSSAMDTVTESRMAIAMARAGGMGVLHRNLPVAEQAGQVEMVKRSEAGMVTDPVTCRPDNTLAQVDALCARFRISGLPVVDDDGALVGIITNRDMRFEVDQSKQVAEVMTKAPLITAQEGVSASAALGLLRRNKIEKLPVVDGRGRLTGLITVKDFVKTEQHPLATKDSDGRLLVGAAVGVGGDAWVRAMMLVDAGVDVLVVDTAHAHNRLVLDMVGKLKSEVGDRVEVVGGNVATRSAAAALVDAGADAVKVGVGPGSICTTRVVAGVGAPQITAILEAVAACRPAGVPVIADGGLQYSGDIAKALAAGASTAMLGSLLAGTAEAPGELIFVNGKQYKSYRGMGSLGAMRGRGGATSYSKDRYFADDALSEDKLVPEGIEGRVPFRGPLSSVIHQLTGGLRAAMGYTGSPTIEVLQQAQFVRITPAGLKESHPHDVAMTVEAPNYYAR

[3] = ratio of Ki,app of the two enantiomers

SMILES | Ki (CpIMPDH [1]) [nM] | Ki (HsIMPDH2) [nM] | also measured
COc1c(C)c2c(c(O)c1CCOCC(=O)Nc1ccc(Cl)cc1)C(=O)OC2 [Compound 38] | 405 | 870 | –
COc1c(C)c2c(c(O)c1C/C=C(\C)CCC(=O)Nc1ccc(C(F)(F)F)cc1)C(=O)OC2 [Compound 14] | 151 | – | –
COc1c(C)c2c(c(O)c1C/C=C(\C)CCC(=O)N(C)c1ccc(Cl)cc1)C(=O)OC2 [Compound 16] | – | – | CpIMPDH inhibition, result in words (CpIMPDH [1]): loss of activity
COc1c(C)c2c(c(O)c1CC(=O)Nc1ccc(Cl)cc1)C(=O)OC2 [Compound 44] | 2800 | 800 | –
COc1c(C)c2c(c(O)c1C/C=C(\C)CCC(=O)O)C(=O)OC2 [MPA, Mycophenolic acid] | – | – | Ki (HsIMPDH1): 33 nM; Ki (CpIMPDH [2]): 9300 nM
COc1c(C)c2c(c(O)c1C/C=C(\C)CCC(=O)Nc1ccc(F)cc1)C(=O)OC2 [Compound 13] | 180 | – | –
COc1c(C)c2c(c(O)c1C/C=C(\C)CCC(=O)Nc1ccc(Cl)c(C(F)(F)F)c1)C(=O)OC2 [Compound 10] | – | – | Ki (MtbIMPDH): 60 nM
COc1c(C)c2c(c(O)c1C/C=C(\C)CCC(=O)Nc1cccc(Cl)c1Cl)C(=O)OC2 [Compound 11] | – | – | CpIMPDH inhibition, result in words (CpIMPDH [1]): loss of CpIMPDH inhibitory activity

Continued, in another order:

Ki (CpIMPDH [1]) [nM] | Ki (HsIMPDH2) [nM] | SMILES | also measured
570 | 1400 | COc1c(C)c2c(c(O)c1C[C@H]1C[C@]1(C)CCC(=O)Nc1ccc(Cl)c(C(F)(F)F)c1)C(=O)OC2 [Compound 31a] | –
66 | 460 | COc1c(C)c2c(c(O)c1C[C@@H]1C[C@@]1(C)CCC(=O)Nc1ccc(Cl)c(C(F)(F)F)c1)C(=O)OC2 [Compound 31b] | eudysmic ratio of 31b and 31a for CpIMPDH inhibition (CpIMPDH [1]; [3]): 8.6; eudysmic ratio of 31b and 31a for HsIMPDH inhibition (HsIMPDH2; [3]): 3.1
480 | 550 | COc1c(C)c2c(c(O)c1C/C=C/C(=O)Nc1ccc(Cl)cc1)C(=O)OC2 [Compound 42a] | –
450 | 290 | COc1c(C)c2c(c(O)c1CCCC(=O)Nc1ccc(Cl)cc1)C(=O)OC2 [Compound 42b] | –
